Assay [1] deals with patients with septic shock. As to conditions: cited from earlier work.
In assay [2] the test system is other receptors, ion channels, or transporters. The settings on record: cited from earlier work.
Assay [3] has as its system patients with vasopressor-dependent sepsis and septic shock. As to the kind of experiment: randomized, placebo-controlled, adaptive clinical study of selepressin plus standard care. In kind it is in vivo, human. On the set-up: Estimated 30-day mortality (up to day 30) / Estimated 30-day mortality, treatment difference vs placebo: concentration or dose not given beside the values. As to conditions: for improvement in estimated VFDs compared with placebo (more): up to day 30; for Est P&VFDs: all patients / Estimated Pressor and Ventilator Free days (P&VFDs): all patients: all doses pooled; for Est % mortality, treatment difference vs placebo / Est P&VFDs: all patients, treatment difference vs placebo / Est P&VFDs: survivors, treatment difference vs placebo / Estimated P&VFDs: all patients, treatment difference vs placebo / Estimated 30-day mortality, treatment difference vs placebo / Estimated P&VFDs: survivors only, treatment difference vs placebo: selepressin minus placebo; for Estimated Pressor and Ventilator Free days (P&VFDs): all patients: up to Day 30. The source says:
The study described in the following examples was a randomized, placebo-controlled, seamless two-part, adaptive clinical study. […] The term “vasopressor-dependent sepsis” includes all patients with sepsis requiring vasopressor therapy. Septic shock includes patients with sepsis who require vasopressor therapy and who have a serum lactate concentration of ≥2 mmol/L.
The inclusion and exclusion criteria for the trial are set out below.
Inclusion Criteria • 18 years of age or older • Proven or suspected infection Septic shock defined as hypotension (systolic blood pressure less than 90 mm Hg or • Mean arterial pressure less than 65 mm Hg requiring vasopressor treatment (i.e., any dose of norepinephrine/noradrenaline base greater than […]) despite adequate fluid resuscitation (at least 1 litre for hypotension) • Informed consent obtained in accordance with local regulations
Exclusion Criteria • Unable to initiate treatment with selepressin or placebo within 12 h of onset of vasopressor treatment for septic shock • Primary cause of hypotension not due to sepsis • Previous severe sepsis with intensive care admission within this hospital stay • Known/suspected acute mesenteric ischemia • Suspicion of concomitant acute coronary syndrome based on clinical symptoms and/or electrocardiogram findings during this episode of septic shock • Chronic mechanical ventilation for any reason or severe chronic obstructive pulmonary disease (COPD) requiring either continuous daily oxygen use during the preceding 30 days or mechanical ventilation (for acute exacerbation of COPD) during the preceding 30 days • Received bone marrow transplant during the preceding 6 months or chemotherapy during the preceding 30 days for lymphoma or leukemia • Known to be pregnant Decision to limit full care taken before obtaining informed consent • Use of vasopressin in the past 12 hours before start of selepressin or placebo or use of terlipressin within 7 days of start of selepressin or placebo • Prior enrollment in the study • Prior use of an investigational medicinal product within the last month or planned or concurrent participation in a clinical trial for any investigational drug or investigational device
Additional Criteria that Must be Met at the Time of the Start of the Infusion of Selepressin or Placebo • Received a minimum of 30 ml/kg fluid in total from the onset of hypotension (not required if there is evidence of adequate fluid repletion or overload) • Received a continuous infusion of norepinephrine/noradrenaline base greater than […] for at least 1 h and is still receiving at least […] norepinephrine/noradrenaline base • Less than 12 h since onset of vasopressor treatment for septic shock
The targeted study population is a typical sample of patients presenting with vasopressor-dependent sepsis, defined by failing to respond to intravenous fluid replacement and requiring vasopressors for at least 1 hour, in whom treatment with selepressin or placebo could be initiated within 12 hours of the initiation of vasopressors.
The study drug was the continuous intravenous infusion of either the experimental agent or a matching placebo. In all instances, subjects received study infusion and standard care. The possible treatment arms were: Placebo; selepressin starting infusion rate 1.7 ng/kg/min to maximum 2.5 ng/kg/min; selepressin starting 2.5 ng/kg/min to maximum 3.75 ng/kg/min; selepressin starting 3.5 ng/kg/min to maximum 5.25 ng/kg/min; and selepressin starting 5.0 ng/kg/min to 7.5 ng/kg/min. […] This latter approach sought to wean all other vasoactive agents as soon as possible, and in a specified order, beginning with any open-label vasopressor other than norepinephrine, followed by norepinephrine, and finally the blinded study infusion. All patients received the study infusion until recovery from the need of vasopressor treatment or for 30 days, whichever came first. […]

The target of assay [4] is human vasopressin V1a receptor (Homo sapiens, UniProt P37288). The settings on record: relative to the V1b, V2, and oxytocin receptors; cited from earlier work.
human vasopressin V1a receptor, sequence (P37288 whole entry): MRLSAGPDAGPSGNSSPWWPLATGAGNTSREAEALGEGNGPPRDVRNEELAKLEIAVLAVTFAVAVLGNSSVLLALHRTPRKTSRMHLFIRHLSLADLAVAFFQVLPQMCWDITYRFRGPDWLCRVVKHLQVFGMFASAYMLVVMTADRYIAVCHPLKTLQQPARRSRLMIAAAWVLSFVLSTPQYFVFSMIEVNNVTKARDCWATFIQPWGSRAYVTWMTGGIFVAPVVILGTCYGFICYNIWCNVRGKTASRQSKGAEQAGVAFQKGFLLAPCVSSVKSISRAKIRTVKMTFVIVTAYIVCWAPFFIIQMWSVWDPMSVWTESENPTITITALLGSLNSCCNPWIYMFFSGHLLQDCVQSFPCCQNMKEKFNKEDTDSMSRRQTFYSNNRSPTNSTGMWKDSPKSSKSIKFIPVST
The mark [5] stands for this setting: baseline serum lactate <2 mmol/L, n = 184.
[6] abbreviates: baseline serum lactate <2 mmol/L.
The mark [7] stands for this setting: baseline serum lactate ≥2 mmol/L, n = 340.
[8] abbreviates: baseline serum lactate ≥2 mmol/L.

Bridge positions count the residues as written; N and C are the ends. Square brackets hold non-standard residues; d marks the D form. Peptide text beside a SMILES is read from it. Orn(iPr) = CC(C)NCCC[C@H](N)C(=O)O; Aad = N[C@@H](CCCC(=O)O)C(=O)O

For `NC(=O)CC[C@@H]1NC(=O)[C@H](Cc2ccccc2)NC(=O)[C@H](Cc2ccc(O)cc2)NC(=O)[C@@H](N)CSSC[C@@H](C(=O)N2CCC[C@H]2C(=O)N[C@@H](CCCN=C(N)N)C(=O)NCC(N)=O)NC(=O)[C@H](CC(N)=O)NC1=O` [vasopressin], the “overall mortality compared with norepinephrine” value in assay [1] (all patients) was “not different”. The “mortality compared with norepinephrine” value in assay [1] (patients requiring 5-14 ug/min of norepinephrine at enrollment) was “decreased mortality”.

Consider `CC[C@H](C)[C@@H]1NC(=O)[C@H](Cc2ccccc2)NC(=O)[C@@H](N)CSSC[C@@H](C(=O)N2CCC[C@H]2C(=O)N[C@@H](CCCNC(C)C)C(=O)NCC(N)=O)NC(=O)[C@H](CC(N)=O)NC(=O)[C@H](CCCC(N)=O)NC1=O` [Selepressin, selepressin] (H-CFI[Aad](NH2)NCP[Orn(iPr)]G-NH2; disulfide 1-6), for which the “affinity for other receptors, ion channels, or transporters” value in assay [2] is given as “no known affinity”. Besides, the “mortality and patient outcomes (pressor and mechanical ventilator free days)” value in assay [3] (PaO2/FiO2 greater than about 200 prior to treatment) was “improved mortality and improved patient outcomes”. Besides, the “mortality and patient outcomes (P&VFDs)” value was “improved mortality and improved patient outcomes” in assay [3] (administered within six hours from when the patient requires vasopressor therapy); “improved mortality and improved patient outcomes” in assay [3] (serum lactate less than about 2 mmol/L prior to treatment). Further, the “improvement in estimated VFDs compared with placebo (more)” value in assay [3] (baseline PaO2/FiO2 200-300 mmHg, FIG. 1) is given as 2.1; in assay [3] (baseline PaO2/FiO2 ≥300 mmHg, FIG. 1) it was 4.8. Also, the “outcomes (VFDs) compared with placebo” value in assay [3] (baseline PaO2/FiO2 <100 mmHg, FIG. 1) is “slightly worse”. Also, the results for the Est % mortality in assay [3] (setting [5]) and in assay [3] (setting [7]) were 21.39% and 40.04%, respectively. The entries for the “Est P&VFDs: all patients” value in assay [3] (setting [5]) and in assay [3] (setting [7]) were 17.53 and 13.87, respectively. The “Est % mortality, treatment difference vs placebo” value is recorded as −6.32% in assay [3] (setting [6]) and 3.96% in assay [3] (setting [8]). Also, the “Est P&VFDs: all patients, treatment difference vs placebo” value in assay [3] (setting [6]) was 2.34; in assay [3] (setting [8]), −0.67. For the same compound, the results for the “Est P&VFDs: survivors” value in assay [3] (setting [6]) and in assay [3] (setting [8]) were 22.30 and 23.14, respectively. In addition, the results for the “Est P&VFDs: survivors, treatment difference vs placebo” value in assay [3] (setting [6]) and in assay [3] (setting [8]) were 1.29 and 0.38, respectively. Besides, the “improvement in mortality compared with placebo (less)” value in assay [3] (serum lactate <2 mmol/L at baseline) was 6.32%; in assay [3] (treatment between zero and up to six hours from when patient required vasopressor) it was 6.57%. Moreover, the “Estimated Pressor and Ventilator Free days (P&VFDs): all patients” value in assay [3] (treatment <6 hours from when patient required vasopressor, n = 147) is listed as 14.56 days; in assay [3] (treatment ≥6 hours, n = 415) it was 15.59 days. Moreover, the “Estimated P&VFDs: all patients, treatment difference vs placebo” value in assay [3] (treatment <6 hours from when patient required vasopressor) was 2.08 days; in assay [3] (treatment ≥6 hours) it was -0.05 days. Also, the “Estimated 30-day mortality (up to day 30)” value is recorded as 35.73% in assay [3] (treatment <6 hours, n = 147) and 33.79% in assay [3] (treatment ≥6 hours, n = 415). Also, the “Estimated 30-day mortality, treatment difference vs placebo” value in assay [3] (treatment <6 hours) is recorded as −6.57%; in assay [3] (treatment ≥6 hours), 2.91%. The “Estimated Pressor and Ventilated Free Days (P&VFDs): survivors only” value in assay [3] (treatment <6 hours) is listed as 22.66 days; in assay [3] (treatment ≥6 hours), 23.55 days. The “Estimated P&VFDs: survivors only, treatment difference vs placebo” value in assay [3] (treatment <6 hours) is given as 1.02 days; in assay [3] (treatment ≥6 hours) it was 0.92 days. Also, the “affinity and selectivity for V1a receptor” value in assay [4] was “high affinity and selectivity”.

(Values after patent publication US20220008499A1, “COMPOUNDS, COMPOSITIONS AND METHODS FOR TREATING SEPSIS” (FERRING B.V., priority 2018, published 2022).)
